Reference: patent US9556183B2, “Substituted pyrazolylpyrazole derivative and use of same as herbicide” (KYOYU AGRI CO., LTD., priority 2013, dated 2017)

How the values were obtained:
Echinochloa crus-galli = test: Paddy herbicidal activity test; format: in vivo; conditions: irrigated paddy pot, treated at 3.5 leaf stage of Echinochloa crus-galli, 30 days
Description: (§1) Rice paddy soil was filled into a 1/10000 are pot followed by the addition of suitable amounts of water and chemical fertilizer, kneading, seeding with Echinochloa crus-galli, Monochoria vaginalis and Scirpus juncoides and maintaining in an irrigated state at a water depth of 3 cm. Wettable powder of Target Compound (I) shown in Table 1 prepared in compliance with the preparation examples were diluted with a suitable amount of water, rice plants in the 2.0 leaf stage were transplanted during 3.5 leaf stage of Echinochloa crus-galli, and treated by dropping in chemical in the prescribed amount per are using a pipette. After treating for 30 days in a glass greenhouse at an average atmospheric temperature of 30° C., the herbicidal efficacy thereof was investigated. Evaluation of herbicidal efficacy was carried out by comparing growth inhibition rate (%) with an untreated group, while evaluation of phytotoxicity was carried out by comparing growth inhibition rate (%) with the state of a complete eradication group, and were evaluated at 11 levels indicated below. [table]

Monochoria vaginalis = test: Paddy herbicidal activity test; format: in vivo; conditions: irrigated paddy pot, 30 days
Description: as §1

Scirpus juncoides = test: Paddy herbicidal activity test; format: in vivo; conditions: irrigated paddy pot, 30 days
Description: as §1

Rice plants = test: Paddy herbicidal activity test, phytotoxicity to transplanted rice; format: in vivo; conditions: rice transplanted at 2.0 leaf stage, 30 days
Description: as §1

Amaranthus retroflexus [1] = test: Farming soil treatment test; format: in vivo; conditions: soil surface spray prior to weed growth, 30 days
Description: (§2) Evaluation of herbicidal efficacy was carried out by comparing growth inhibition rate (%) with an untreated group, while evaluation of phytotoxicity was carried out by comparing growth inhibition rate (%) with the state of a complete eradication group, and were evaluated at 11 levels indicated below. [table] Field soil was filled into a 1/6000 are pot followed by seeding with Digitaria ciliaris, Chenopodium album and Amaranthus retroflexus and covering with soil. Wettable powder of compounds of formula (I) shown in Table 1 prepared in compliance with the preparation examples were diluted with water to the prescribed amount of chemical and uniformly sprayed onto each soil surface layer using 10 liters of sprayed water per are prior to weed growth following seeding. After treating for 30 days in a glass greenhouse at an average atmospheric temperature of 30° C., the herbicidal efficacy thereof was investigated. Evaluation of herbicidal efficacy was carried out in the same manner as the above-mentioned Test Example 1.

Chenopodium album [2] = test: Farming soil treatment test; format: in vivo; conditions: soil surface spray prior to weed growth, 30 days
Description: as §2

Digitaria ciliaris [3] = test: Farming soil treatment test; format: in vivo; conditions: soil surface spray prior to weed growth, 30 days
Description: as §2

Amaranthus retroflexus [4] = test: Weed foliar treatment test; format: in vivo; conditions: foliar spray, 3 weeks
Description: (§3) Evaluation of herbicidal efficacy was carried out by comparing growth inhibition rate (%) with an untreated group, while evaluation of phytotoxicity was carried out by comparing growth inhibition rate (%) with the state of a complete eradication group, and were evaluated at 11 levels indicated below. [table] Soil was filled into a 1/6000 are pot followed by seeding with Digitaria ciliaris, Chenopodium album and Amaranthus retroflexus, covering with soil, and cultivating in a glass greenhouse at an average atmospheric temperature of 25° C. Wettable powder of Target Compound (I) shown in Table 1 prepared in compliance with the preparation examples were diluted with water to the prescribed amount of chemical and uniformly sprayed onto the weeds using 15 liters of sprayed water per are when Digitaria ciliaris had grown to the 1.0 to 2.0 leaf stage. After treating for 3 weeks in a glass greenhouse at an average atmospheric temperature of 25° C., the herbicidal efficacy thereof was investigated, Evaluation of herbicidal efficacy was carried out in the same manner as the above-mentioned Test Example 1.

Chenopodium album [5] = test: Weed foliar treatment test; format: in vivo; conditions: foliar spray, 3 weeks
Description: as §3

Digitaria ciliaris [6] = test: Weed foliar treatment test; format: in vivo; conditions: foliar spray at 1.0 to 2.0 leaf stage of Digitaria ciliaris, 3 weeks
Description: as §3

Compound	herbicidal efficacy (growth inhibition rate level) Echinochloa crus-galli (Echinochloa crus-galli; 1g a.i./10a)	herbicidal efficacy (growth inhibition rate level) Echinochloa crus-galli (Echinochloa crus-galli; 5g a.i./10a)	herbicidal efficacy (growth inhibition rate level) Monochoria vaginalis (Monochoria vaginalis; 1g a.i./10a)	herbicidal efficacy (growth inhibition rate level) Monochoria vaginalis (Monochoria vaginalis; 5g a.i./10a)	herbicidal efficacy (growth inhibition rate level) Scirpus juncoides (Scirpus juncoides; 1g a.i./10a)	herbicidal efficacy (growth inhibition rate level) Scirpus juncoides (Scirpus juncoides; 5g a.i./10a)	phytotoxicity (growth inhibition rate level) Rice plants (Rice plants; 1g a.i./10a)	phytotoxicity (growth inhibition rate level) Rice plants (Rice plants; 5g a.i./10a)	herbicidal efficacy (growth inhibition rate level) Amaranthus retroflexus (Amaranthus retroflexus [1]; 5g a.i./10a)	herbicidal efficacy (growth inhibition rate level) Amaranthus retroflexus (Amaranthus retroflexus [1]; 10g a.i./10a)	herbicidal efficacy (growth inhibition rate level) Chenopodium album (Chenopodium album [2]; 5g a.i./10a)	herbicidal efficacy (growth inhibition rate level) Chenopodium album (Chenopodium album [2]; 10g a.i./10a)	herbicidal efficacy (growth inhibition rate level) Digitaria ciliaris (Digitaria ciliaris [3]; 5g a.i./10a)	herbicidal efficacy (growth inhibition rate level) Digitaria ciliaris (Digitaria ciliaris [3]; 10g a.i./10a)	herbicidal efficacy (growth inhibition rate level) Amaranthus retroflexus (Amaranthus retroflexus [4]; 5g a.i./10a)	herbicidal efficacy (growth inhibition rate level) Amaranthus retroflexus (Amaranthus retroflexus [4]; 10g a.i./10a)	herbicidal efficacy (growth inhibition rate level) Chenopodium album (Chenopodium album [5]; 5g a.i./10a)	herbicidal efficacy (growth inhibition rate level) Chenopodium album (Chenopodium album [5]; 10g a.i./10a)	herbicidal efficacy (growth inhibition rate level) Digitaria ciliaris (Digitaria ciliaris [6]; 5g a.i./10a)	herbicidal efficacy (growth inhibition rate level) Digitaria ciliaris (Digitaria ciliaris [6]; 10g a.i./10a)	other results
N#Cc1cnn(-c2nn3c(c2Cl)CCCC3)c1NCC1CC1 [Compound 1, 1-(3-chloro-4,5,6,7-tetrahydropyrazolo[1,5-a]pyridin-2-yl)-5-(cyclopropylmethylamino)pyrazole-4-carbonitrile]	9 (9: 90% to less than 100%)	10 (10: 100%)	8 (8: 80% to less than 90%)	8 (8: 80% to less than 90%)	8 (8: 80% to less than 90%)	9 (9: 90% to less than 100%)	0 (0 (exponent): 0% to less than 10% (growth inhibition rate))	1 (1: 10% to less than 20%)	10 (10: 100%)	10 (10: 100%)	10 (10: 100%)	10 (10: 100%)	10 (10: 100%)	10 (10: 100%)	10 (10: 100%)	10 (10: 100%)	10 (10: 100%)	10 (10: 100%)	10 (10: 100%)	10 (10: 100%)	melting point: 165 to 166 °C
N#Cc1cnn(-c2nn3c(c2Cl)CCCC3)c1N(CC1CC1)C(=O)C(F)(F)F [Compound 2, N-(1-(3-chloro-4,5,6,7-tetrahydropyrazolo[1,5-a]pyridin-2-yl)-4-cyanopyrazol-5-yl)-N-(cyclopropylmethyl)-2,2,2-trifluoroacetoamide]	9 (9: 90% to less than 100%)	9 (9: 90% to less than 100%)	8 (8: 80% to less than 90%)	9 (9: 90% to less than 100%)	8 (8: 80% to less than 90%)	8 (8: 80% to less than 90%)	0 (0 (exponent): 0% to less than 10% (growth inhibition rate))	1 (1: 10% to less than 20%)	10 (10: 100%)	10 (10: 100%)	10 (10: 100%)	10 (10: 100%)	10 (10: 100%)	10 (10: 100%)	10 (10: 100%)	10 (10: 100%)	10 (10: 100%)	10 (10: 100%)	10 (10: 100%)	10 (10: 100%)	melting point: 87.3 to 101 °C
N#Cc1cnn(-c2nn3c(c2Cl)CCCC3)c1NC1CC1 [Control agent 4.84, reference compound]	3 (3: 30% to less than 40%)	5 (5: 50% to less than 60%)	2 (2: 20% to less than 30%)	3 (3: 30% to less than 40%)	3 (3: 30% to less than 40%)	4 (4: 40% to less than 50%)	0 (0 (exponent): 0% to less than 10% (growth inhibition rate))	2 (2: 20% to less than 30%)	6 (6: 60% to less than 70%)	6 (6: 60% to less than 70%)	6 (6: 60% to less than 70%)	6 (6: 60% to less than 70%)	5 (5: 50% to less than 60%)	5 (5: 50% to less than 60%)	6 (6: 60% to less than 70%)	7 (7: 70% to less than 80%)	6 (6: 60% to less than 70%)	7 (7: 70% to less than 80%)	5 (5: 50% to less than 60%)	6 (6: 60% to less than 70%)	–
N#Cc1cnn(-c2nn3c(c2Cl)CCCC3)c1NCC1CO1 (stereo not shown) [Control agent 4.129, reference compound]	1 (1: 10% to less than 20%)	3 (3: 30% to less than 40%)	0 (0 (exponent): 0% to less than 10% (growth inhibition rate))	0 (0 (exponent): 0% to less than 10% (growth inhibition rate))	3 (3: 30% to less than 40%)	4 (4: 40% to less than 50%)	1 (1: 10% to less than 20%)	2 (2: 20% to less than 30%)	6 (6: 60% to less than 70%)	7 (7: 70% to less than 80%)	6 (6: 60% to less than 70%)	6 (6: 60% to less than 70%)	4 (4: 40% to less than 50%)	5 (5: 50% to less than 60%)	7 (7: 70% to less than 80%)	7 (7: 70% to less than 80%)	6 (6: 60% to less than 70%)	7 (7: 70% to less than 80%)	4 (4: 40% to less than 50%)	5 (5: 50% to less than 60%)	–
